Data published in US9301526B2, “Compounds with nematicidal activity” (BAYER INTELLECTUAL PROPERTY GMBH, priority 2011, dated 2016).

The compounds below were run on Meloidogyne incognita (assay: Meloidogyne incognita test (gall formation on salad seedlings in sand)). Conditions: application rate 20 ppm; after 14 days; 100% = no galls, 0% = galls equal to untreated control.
Assay type: in vivo
Description: Meloidogyne Incognita—Test
Solvent: 125.0 parts by weight of acetone
To produce a suitable preparation of active compound, 1 part by weight of active compound is mixed with the stated amount of solvent, and the concentrate is diluted with water to the desired concentration. Vessels are filled with sand, a solution of the active ingredient, a suspension containing eggs and larvae of Meloidogyne incognita and salad seeds. The salad seeds germinate and the seedlings grow. Galls develop in the roots.
After 14 days the nematicidal activity is determined on the basis of the percentage of gall formation. 100% means that no galls were found; 0% means that the number of galls found on the roots of the treated plants was equal to that in untreated control plants.
With `CC(Cc1ncc(C(F)(F)F)cc1Cl)NC(=O)c1ccccc1C(F)(F)F` (centres unmarked) [Ia-43] the “nematicidal activity on the basis of the percentage of gall formation” value was 100%. With `O=C(NCC(F)(F)c1ncc(Cl)cc1Cl)c1ccccc1I` [Ia-142] the “nematicidal activity on the basis of the percentage of gall formation” value was 100%. In the case of `CC(CNC(=O)c1ccccc1I)c1ccc(C(F)(F)F)c(Cl)n1` (centres unmarked) [Ia-50], the “nematicidal activity on the basis of the percentage of gall formation” value is reported as 100%. `O=C(NCCc1cnc(C(F)(F)F)cc1Cl)c1c(F)cccc1F` [Ib-51] was tested, and the “nematicidal activity on the basis of the percentage of gall formation” value was 70%. `CC(Cc1ncc(C(F)(F)F)cc1Cl)NC(=O)c1c(F)cccc1F` (centres unmarked) [Ia-170] was tested, and the “nematicidal activity on the basis of the percentage of gall formation” value was 90%. `CC(C)(CNC(=O)c1ccccc1C(F)(F)F)c1ncc(C(F)(F)F)cc1Cl` [Ia-93, N-{2-[3-chloro-5-(trifluoromethyl)pyridin-2-yl]-2-methylpropyl}-2-(trifluoromethyl)benzamide] was tested, and the “nematicidal activity on the basis of the percentage of gall formation” value was 100%. For `O=C(NCCc1cnc(C(F)(F)F)cc1Cl)c1ccccc1[N+](=O)[O-]` [Ib-58], the “nematicidal activity on the basis of the percentage of gall formation” value was 90%. `CC(Cc1ncc(C(F)(F)F)cc1Cl)NC(=O)c1ccccc1F` (centres unmarked) [Ia-172] was tested, and the “nematicidal activity on the basis of the percentage of gall formation” value was 90%. In the case of `CC(CNC(=O)c1ccccc1I)c1ncc(Cl)cc1Cl` (centres unmarked) [Ia-114], the “nematicidal activity on the basis of the percentage of gall formation” value is reported as 100%. `CC(Cc1ncc(C(F)(F)F)cc1Cl)NC(=O)c1ccccc1[N+](=O)[O-]` (centres unmarked) [Ia-196] was tested, and the “nematicidal activity on the basis of the percentage of gall formation” value was 90%. For `CCC(CNC(=O)c1ccccc1C(F)(F)F)c1ccc(Cl)cn1` (centres unmarked) [Ia-131], the “nematicidal activity on the basis of the percentage of gall formation” value was 100%. `O=C(NCC(F)(F)c1ncc(C(F)(F)F)cc1Cl)c1ccccc1C(F)(F)F` [Ia-148] was tested, and the “nematicidal activity on the basis of the percentage of gall formation” value was 100%. `CN(C)C(CNC(=O)c1ccccc1Cl)c1ncc(C(F)(F)F)cc1Cl` (centres unmarked) [Ia-211] was tested, and the “nematicidal activity on the basis of the percentage of gall formation” value was 90%. In the case of `CC(Cc1ncc(C(F)(F)F)cc1Cl)NC(=O)c1ccccc1I` (centres unmarked) [Ia-140], the “nematicidal activity on the basis of the percentage of gall formation” value is reported as 100%. For `CC(Cc1ncc(C(F)(F)F)cc1Cl)NC(=O)c1ccccc1Br` (centres unmarked) [Ia-153], the “nematicidal activity on the basis of the percentage of gall formation” value was 100%. For `Cc1c(F)cccc1C(=O)NCC(C)c1ncc(C(F)(F)F)cc1Cl` (centres unmarked) [Ia-70], the “nematicidal activity on the basis of the percentage of gall formation” value was 100%. In the case of `CN(C)C(CNC(=O)c1ccccc1C(F)(F)F)c1ncc(C(F)(F)F)cc1Cl` (centres unmarked) [Ia-212], the “nematicidal activity on the basis of the percentage of gall formation” value is reported as 90%. `O=C(NCCc1c(F)c(F)nc(F)c1F)c1ccccc1I` [Ic-2] was tested, and the “nematicidal activity on the basis of the percentage of gall formation” value was 100%. For `O=C(NCCc1cc(F)ncc1F)c1ccccc1C(F)(F)F` [Ic-7], the “nematicidal activity on the basis of the percentage of gall formation” value was 100%. For `CC(CNC(=O)c1ccccc1C(F)(F)F)c1ncc(C(F)(F)F)cc1Cl` (centres unmarked) [Ia-92], the “nematicidal activity on the basis of the percentage of gall formation” value was 100%. In the case of `O=C(NCCc1c(F)c(F)nc(F)c1F)c1ccccc1C(F)(F)F` [Ic-1], the “nematicidal activity on the basis of the percentage of gall formation” value is reported as 100%. `O=C(NCCc1cnc(C(F)(F)F)cc1Cl)c1ccccc1C(F)(F)F` [Ib-47] was tested, and the “nematicidal activity on the basis of the percentage of gall formation” value was 90%. For `CC(CNC(=O)c1ccccc1I)c1ccc(C(F)(F)F)cn1` (centres unmarked) [Ia-47], the “nematicidal activity on the basis of the percentage of gall formation” value was 100%. `CC(CNC(=O)c1ccccc1C(F)(F)F)c1ccc(C(F)(F)F)cn1` (centres unmarked) [Ia-46] was tested, and the “nematicidal activity on the basis of the percentage of gall formation” value was 100%. In the case of `CC(Cc1ncc(C(F)(F)F)cc1Cl)NC(=O)c1ccccc1C(F)F` (centres unmarked) [Ia-154], the “nematicidal activity on the basis of the percentage of gall formation” value is reported as 100%. For `CC(CNC(=O)c1ccccc1I)c1ncc(C(F)(F)F)cc1Cl` (centres unmarked) [Ia-177], the “nematicidal activity on the basis of the percentage of gall formation” value was 100%. With `CC(Cc1ncc(C(F)(F)F)cc1Cl)NC(=O)c1ccccc1C(F)(F)F` (single isomer, unassigned) [Ia-122] the “nematicidal activity on the basis of the percentage of gall formation” value was 100%. For `CC(CNC(=O)c1ccccc1C(F)(F)F)c1ncc(Cl)cc1Cl` (centres unmarked) [Ia-113], the “nematicidal activity on the basis of the percentage of gall formation” value was 100%. For `Cc1cc(CCNC(=O)c2ccccc2C(F)(F)F)c(Cl)cn1` [Ic-5], the “nematicidal activity on the basis of the percentage of gall formation” value was 90%. For `CC(Cc1ncc(C(F)(F)F)cc1Cl)NC(=O)c1c(F)cccc1C(F)(F)F` (centres unmarked) [Ia-174], the “nematicidal activity on the basis of the percentage of gall formation” value was 90%. With `CC(Cc1ncc(C(F)(F)F)cc1Cl)NC(=O)c1ccccc1Cl` (centres unmarked) [Ia-141] the “nematicidal activity on the basis of the percentage of gall formation” value was 100%. `CCC(Cc1ncc(C(F)(F)F)cc1Cl)NC(=O)c1ccccc1C(F)(F)F` (centres unmarked) [Ia-110] was tested, and the “nematicidal activity on the basis of the percentage of gall formation” value was 100%. With `CC(Cc1ncc(Cl)cc1Cl)NC(=O)c1ccccc1C(F)(F)F` (centres unmarked) [Ia-3] the “nematicidal activity on the basis of the percentage of gall formation” value was 100%. For `CC(NC(=O)c1ccccc1C(F)(F)F)C(CC1CC1)c1ncc(C(F)(F)F)cc1Cl` (mixture of isomers) [Ia-143], the “nematicidal activity on the basis of the percentage of gall formation” value was 100%. In the case of `O=C(NCCc1cnc(C(F)(F)F)cc1Cl)c1ccccc1C(F)F` [Ib-50], the “nematicidal activity on the basis of the percentage of gall formation” value is reported as 70%.

The compounds below were run on Cooperia curticei larvae (assay: Cooperia curticei test (COOPCU), larval mortality). Conditions: application rate 100 ppm; after 5 days; 100% = all larvae killed.
Assay type: in vivo
Description: Cooperia Curticei-Test (COOPCU)
(§1) Solvent: dimethyl sulfoxide
(§2) To produce a suitable preparation of active compound, 10 mg of active compound are dissolved in 0.5 ml solvent, and the concentrate is diluted with “Ringer's solution” to the desired concentration.
Approximately 40 Cooperia curticei larvae are transferred into a test tube containing compound solution. After 5 days percentage of larval mortality are recorded. 100% efficacy means all larvae are killed; 0% efficacy means no larvae are killed.
With `CCc1ccc(C(=O)NCCc2ccnc(OC)c2)cc1` [Ic-58] the “activity (percentage of larval mortality)” value was 80%. With `O=C(NCCc1cnc(C(F)(F)F)cc1Cl)c1ccccc1F` [Ib-48] the “activity (percentage of larval mortality)” value was 90%. In the case of `O=C(NCCc1c(Cl)cncc1Cl)c1ccc(F)c(F)c1` [Ic-26], the “activity (percentage of larval mortality)” value is reported as 80%. In the case of `COc1cc(CCNC(=O)c2ccccc2OC)ccn1` [Ic-59], the “activity (percentage of larval mortality)” value is reported as 90%. With `COc1cc(CCNC(=O)c2cccc(Cl)c2)ccn1` [Ic-75] the “activity (percentage of larval mortality)” value was 90%. With `COc1cc(CCNC(=O)c2ccc(C(F)(F)F)cc2)ccn1` [Ic-60] the “activity (percentage of larval mortality)” value was 90%.

Each compound was assayed on Haemonchus contortus larvae (assay: Haemonchus contortus test (HAEMCO), larval mortality). Conditions: application rate 20 ppm; after 5 days; 100% = all larvae killed.
Assay type: in vivo
Description: Haemonchus contortus—Test (HAEMCO)
as §1, §2
Approximately 40 Haemonchus contortus larvae are transferred into a test tube containing compound solution. After 5 days percentage of larval mortality are recorded. 100% efficacy means all larvae are killed, 0% efficacy means no larvae are killed.
With `O=C(NCCc1cnc(C(F)(F)F)cc1Cl)c1ccccc1Br` [Ib-52] the “activity (percentage of larval mortality)” value was 80%.

Same assay, conditions: application rate 100 ppm; after 5 days; 100% = all larvae killed
`O=C(NCCc1cnc(C(F)(F)F)cc1Cl)c1c(F)cccc1F` [Ib-51] was tested, and the “activity (percentage of larval mortality)” value was 90%. With `O=C(NCCc1cnc(C(F)(F)F)cc1Cl)c1ccccc1F` [Ib-48] the “activity (percentage of larval mortality)” value was 90%. `O=C(NCC1(c2ccc(Cl)cn2)CC1)c1ccccc1C(F)(F)F` [Ia-48] was tested, and the “activity (percentage of larval mortality)” value was 80%. For `O=C(NCCc1cc(F)ncc1F)c1ccccc1C(F)(F)F` [Ic-7], the “activity (percentage of larval mortality)” value was 100%. For `O=C(NCCc1c(F)c(F)nc(F)c1F)c1ccccc1C(F)(F)F` [Ic-1], the “activity (percentage of larval mortality)” value was 100%. `O=C(NCCc1cnc(C(F)(F)F)cc1Cl)c1ccccc1C(F)(F)F` [Ib-47] was tested, and the “activity (percentage of larval mortality)” value was 100%. In the case of `O=C(NCCc1cnc(C(F)(F)F)cc1Cl)c1ccccc1Cl` [Ib-49], the “activity (percentage of larval mortality)” value is reported as 100%. In the case of `COC(=O)C(CNC(=O)c1ccccc1C(F)(F)F)c1ncc(C(F)(F)F)cc1Cl` (centres unmarked) [Ia-5], the “activity (percentage of larval mortality)” value is reported as 80%. With `COC(=O)C(CNC(=O)c1ccccc1C(F)(F)F)(C(=O)OC)c1ncc(C(F)(F)F)cc1Cl` [Ia-1] the “activity (percentage of larval mortality)” value was 90%. In the case of `CCOC(=O)C(CNC(=O)c1ccccc1C(F)(F)F)(C(=O)OC)c1ncc(C(F)(F)F)cc1Cl` (centres unmarked) [Ia-6], the “activity (percentage of larval mortality)” value is reported as 80%. For `O=C(NCCc1cnc(C(F)(F)F)cc1Cl)c1ccccc1C(F)F` [Ib-50], the “activity (percentage of larval mortality)” value was 100%.
